Eight compounds from paper PMC8595511 (Experimental eye research, 2021) can be followed below.

The target in test [1] is T1, recombinant mouse retbindin (mRTBN, RTBDN) (Mus musculus, UniProt Q8QZY4).
T1 sequence (Q8QZY4 32-247): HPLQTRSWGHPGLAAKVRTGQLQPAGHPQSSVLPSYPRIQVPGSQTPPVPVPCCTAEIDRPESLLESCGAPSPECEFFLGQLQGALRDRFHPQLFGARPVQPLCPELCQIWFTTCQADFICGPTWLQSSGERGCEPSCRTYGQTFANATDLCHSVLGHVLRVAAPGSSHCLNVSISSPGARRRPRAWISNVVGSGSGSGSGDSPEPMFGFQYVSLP
As to the kind of experiment: bio-layer interferometry. It is filed as binding. The conditions noted are these: PBS.

Test [2] has as its target Bovine Interphotoreceptor Retinoid Binding Protein (bIRBP) (Bos taurus, UniProt P12661). Briefly: bio-layer interferometry. Particulars: PBS; ligand predissolved in DMSO, 1-10 μM.

Bovine Interphotoreceptor Retinoid Binding Protein (bIRBP), sequence (P12661 23-1286): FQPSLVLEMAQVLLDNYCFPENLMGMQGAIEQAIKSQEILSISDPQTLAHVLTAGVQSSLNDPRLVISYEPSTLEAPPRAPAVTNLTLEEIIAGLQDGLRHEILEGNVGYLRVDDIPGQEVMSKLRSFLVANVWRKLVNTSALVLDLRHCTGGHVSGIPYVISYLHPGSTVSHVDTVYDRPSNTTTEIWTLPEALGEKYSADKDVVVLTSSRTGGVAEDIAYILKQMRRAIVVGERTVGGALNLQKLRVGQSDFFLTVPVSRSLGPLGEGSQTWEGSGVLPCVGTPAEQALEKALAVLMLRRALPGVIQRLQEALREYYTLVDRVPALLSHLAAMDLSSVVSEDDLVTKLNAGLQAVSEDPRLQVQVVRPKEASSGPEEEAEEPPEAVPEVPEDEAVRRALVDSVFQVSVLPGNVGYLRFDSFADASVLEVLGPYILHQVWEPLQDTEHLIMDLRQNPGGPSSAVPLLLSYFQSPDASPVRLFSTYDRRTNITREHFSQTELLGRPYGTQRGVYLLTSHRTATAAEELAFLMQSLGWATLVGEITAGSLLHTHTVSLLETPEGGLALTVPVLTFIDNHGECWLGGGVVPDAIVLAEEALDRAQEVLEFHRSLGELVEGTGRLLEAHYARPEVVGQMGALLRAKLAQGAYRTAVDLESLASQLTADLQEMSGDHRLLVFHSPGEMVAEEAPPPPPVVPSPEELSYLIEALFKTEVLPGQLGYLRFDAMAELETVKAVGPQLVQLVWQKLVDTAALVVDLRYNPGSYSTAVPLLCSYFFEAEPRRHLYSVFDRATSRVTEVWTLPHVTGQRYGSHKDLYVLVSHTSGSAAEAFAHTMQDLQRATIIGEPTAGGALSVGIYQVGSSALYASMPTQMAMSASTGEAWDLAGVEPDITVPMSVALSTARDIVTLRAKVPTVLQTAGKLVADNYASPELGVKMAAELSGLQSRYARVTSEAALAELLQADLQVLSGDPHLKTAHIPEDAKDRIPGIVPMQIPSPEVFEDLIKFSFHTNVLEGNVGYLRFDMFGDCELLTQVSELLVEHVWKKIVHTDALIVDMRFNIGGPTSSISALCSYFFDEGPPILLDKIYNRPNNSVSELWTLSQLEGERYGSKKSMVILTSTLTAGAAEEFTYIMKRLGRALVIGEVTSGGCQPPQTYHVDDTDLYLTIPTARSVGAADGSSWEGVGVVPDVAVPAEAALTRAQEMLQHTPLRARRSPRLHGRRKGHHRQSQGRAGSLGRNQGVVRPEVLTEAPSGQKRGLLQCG

For the compound `CC1=C(/C=C/C(C)=C\C=C\C(C)=C\C=O)C(C)(C)CCC1` [9-cis retinal], the Dissociation constant result in test [1] was “Dissociation constants for retinoids, flavins and fluorescein (as a control) on retbindin”.
On the same count and under the same terms, the result for `CC1=C(/C=C/C(C)=C\C=C\C(C)=C\C(=O)O)C(C)(C)CCC1` [9-cis retinoic acid] reads “Dissociation constants for retinoids, flavins and fluorescein (as a control) on retbindin”.
For `CC1=C(/C=C/C(C)=C/C=C\C(C)=C\C=O)C(C)(C)CCC1` [11-cis retinal], the Dissociation constant entry in test [1] (ligand predissolved in DMSO, 1-10 μM) is recorded as “the protein showed significant affinity for several retinoids, particularly for 11-cis retinal”; in test [2], “very similar to the well characterized 11-cis retinal transport protein IRBP”.
For the compound `CC1=C(/C=C/C(C)=C/C=C\C(C)=C\C(=O)O)C(C)(C)CCC1` [11-cis retinoic acid], the Dissociation constant entry in test [1] was “Dissociation constants for retinoids, flavins and fluorescein (as a control) on retbindin”.
On to `Cc1cc2nc3c(=O)[nH]c(=O)nc-3n(C[C@H](O)[C@H](O)[C@H](O)COP(=O)(O)O)c2cc1C` [FMN], for which the Dissociation constant entry in test [1] (1-100 μM) is “Dissociation constants for retinoids, flavins and fluorescein (as a control) on retbindin”.
In the case of `CC1=C(/C=C/C(C)=C/C=C/C(C)=C/C=O)C(C)(C)CCC1` [all trans retinal], the Dissociation constant result in test [1] is “Dissociation constants for retinoids, flavins and fluorescein (as a control) on retbindin”.
`O=C1OC2(c3ccc(O)cc3Oc3cc(O)ccc32)c2ccccc21` [fluorescein, reference compound]: the Dissociation constant entry in test [1] (1-100 μM) is “Dissociation constants for retinoids, flavins and fluorescein (as a control) on retbindin”.
`Cc1cc2nc3c(=O)[nH]c(=O)nc-3n(C[C@H](O)[C@H](O)[C@H](O)CO)c2cc1C` [riboflavin]: the Dissociation constant result in test [1] (1-100 μM) was “Dissociation constants for retinoids, flavins and fluorescein (as a control) on retbindin”.
